Each structure is given as a SMILES string. Values after ≈ are worked out from the molar mass of the structure shown.

Here are results for 1 compound from patent EP3360539A1, “PHARMACEUTICAL FORMULATION” (SapioTec GmbH, priority 2017, dated 2018).

For data set [1] the following is noted: in HPBCD (10%); Fuchs et al. 2014; cited from earlier work.
For data set [2] the following is noted: pH 9.

For orientation: solubility (thermodynamic) means solubility found after equilibrating the solid with the medium. Regarding `O=C1CN(/N=C/c2ccc(-c3ccc([N+](=O)[O-])cc3)o2)C(O)=N1` [Dantrolen-Natrium], the “Konzentration des gelösten Dantrolens in Lösung” value in data set [1] is listed as 0,137 mg/ml. The Löslichkeit entry in data set [2] is recorded as “bemerkenswerte Steigerung der Löslichkeit”. The solubility (thermodynamic) at 24 h was found to be 15.6 mg/mL (≈ 49.6 mM) in the data set “physchem” (25% hpbcd in deionized water, Gelöstes Dantrolen-Natrium); 16 mg/mL (≈ 50.9 mM) in “physchem” (25% hpbcd in deionized water, pH 9, Gelöstes Dantrolen-Natrium); 14.4 mg/mL (≈ 45.8 mM) in “physchem” (25% hpbcd, 1% tris, water, pH 9, Gelöstes Dantrolen-Natrium); 9.5 mg/mL (≈ 30.2 mM) in “physchem” (water, 25% hpbcd, 2% glycerol, pH 9, organic solvent or mixture, Gelöstes Dantrolen-Natrium); 8.5 mg/mL (≈ 27 mM) in the data set “physchem” (water, 25% hpbcd, arginine, pH 9, Gelöstes Dantrolen-Natrium); 3.6 mg/mL (≈ 11.5 mM) in the data set “physchem” (water, 25% hpbcd, edta, pH 9, Gelöstes Dantrolen-Natrium). This compound also showed a thermodynamic solubility at 24 h in “physchem” (water, 25% hpbcd, lysine, pH 9, Gelöstes Dantrolen-Natrium) of 15.7 mg/mL (≈ 50 mM).
